Measurements from US8530501B2, “Salts and crystalline forms of a factor Xa inhibitor” (Millennium Pharmaceuticals, Inc., priority 2009, dated 2013).

Tests used:
Type in all cases: physicochemical
[1] = Thermodynamic aqueous solubility by HPLC (filtration method); details: for pH: pH of the solubility suspension; for pH (with aqueous solubility): pH of suspension
Procedure: The aqueous thermodynamic solubility of selected salt forms was measured using the filtration method as described in Example 10.
The suspension was equilibrated at 25° C. for 24 hours then the pH was measured. The suspension was then filtered through a glass fiber C filter into a 96 well plate. The filtrate was then diluted by a factor of 101. Quantitation was by HPLC with reference to a standard solution of approximately 0.1 mg/mL in DMSO. Different volumes of the standard, diluted and undiluted sample solutions were injected. The solubility was calculated using the peak areas determined by integration of the peak found at the same retention time as the principal peak in the standard injection.

[2] = Stability on storage at 40° C./75% RH (XRPD, HPLC purity); details: for stability with respect to solid form and chemical purity: 40° C./75% RH (elevated humidity and temperature); for crystallinity upon storage (XRPD): 40° C./75% RH, no change in solid form; for Purity post 40° C./75% RH: HPLC purity after seventeen days at 40° C./75% RH; for Purity as isolated: HPLC purity pre 40° C./75% RH; for drop in chemical purity: upon storage at 40° C./75% RH
Description: […] No significant thermal events were seen before degradation began for both the phosphate salt and the 1-hydroxy-2-naphthoate salts.

[3] = Gravimetric Vapour Sorption (GVS); details: for physical stability after moisture exposure (XRPD pre- and post-GVS): exposed up to 90% RH at 25° C.; for Hygroscopicity: moisture absorbed by weight: between 0 and 90% relative humidity
Procedure: Sorption isotherms were obtained using a SMS HT-DVS moisture sorption analyser by Surface Measurement Systems Limited, Middlesex, UK, controlled by SMS Analysis Suite software. The sample temperature was maintained at 25° C. by the instrument controls. The humidity was controlled by mixing streams of dry and wet nitrogen, with a total flow rate of 400 mL/min. The relative humidity was measured by a calibrated optical dew point transmitter (dynamic range of 0.5-100% RH), located near the sample. The weight change, (mass relaxation) of the sample as a function of % RH was constantly monitored by the microbalance (accuracy±0.005 mg).
Typically 5-20 mg of sample was placed in a tared mesh stainless steel liner within a stainless steel pan under ambient conditions. The sample was loaded and unloaded at 40% RH and 25° C. (typical room conditions).
A moisture sorption isotherm was performed as outlined in Table 13 (2 scans giving 1 complete cycle). The standard isotherm was performed at 25° C. at 10% RH intervals over a 0.5-90% RH range.
The sample was recovered after completion of the isotherm and re-analysed by XRPD.

[4] = Log P and Log D determination (potentiometric titration, octanol:ISA water); details: octanol/ionic-strength adjusted (ISA) water
Description: Data were collected by potentiometric titration on a Sirius GlpKa instrument using three ratios of octanol:ionic-strength adjusted (ISA) water to generate Log P, Log Pion, and Log D values. The data were refined using Refinement Pro software v1.0. Prediction of Log P values was made using ACD v9 and Syracuse KOWWIN™ v1.67 software by Syracuse Research Corp., Syracuse, N.Y., USA.

[5] = pKa determination (Sirius GlpKa); details: 25° C.
Procedure: Data were collected on a Sirius GlpKa instrument by Sirius Analytical Ltd., UK with a D-PAS attachment. Measurements were made at 25° C. in aqueous solution by UV and in methanol water mixtures by potentiometry. The titration media was ionic-strength adjusted (ISA) with 0.15 M KCl (aq). The values found in the methanol water mixtures were corrected to 0% co-solvent via a Yasuda-Shedlovsky extrapolation. The data were refined using Refinement Pro software v1.0. Prediction of pKa values was made using ACD pKa prediction software v9.

[6] = Thermodynamic aqueous solubility by HPLC (ultracentrifugation method)
Procedure: The physical chemical properties of Forms A and B were determined according to the procedures below and the data are summarized in Table 12.
The mixture was allowed to equilibrate for at least 48 hours at 37° C. under mild agitation. At each 24-48 hour interval, an aliquot was removed and the solution was separated from the solid via ultracentrifugation at >60,000 rpm for 20 min and then analyzed by HPLC for the concentration of the compound in the supernatant. Upon equilibration (concentration plateau is reached), the concentration was reported as solubility. This method is the preferred method in determining solubility as it attains the equilibrium and is measurement of the thermodynamic solubility.

[7] = Table 8, filtration method, water, 25° C., 24 hours
[8] = listed as 1-Hydroxy-2-naphthoate 2-5

SMILES | Aqueous solubility [1, 7] [µg/mL] | pH ([1]; Table 8) | stability with respect to solid form and chemical purity [2] | crystallinity upon storage (XRPD) [2] | hygroscopicity (GVS) [3] | Hygroscopicity: moisture absorbed by weight [3] | physical stability after moisture exposure (XRPD pre- and post-GVS) [3] | pH of saturated solution [6] | Aqueous Solubility (Ultracentrifugation Method) ([6]; in simulated gastric fluid) | Aqueous Solubility (Ultracentrifugation Method) ([6]; in simulated intestinal fluid) [mg/mL in simulated] | Aqueous Solubility (Ultracentrifugation Method) ([6]; in water) [mg/mL in water] | further results
O=C(NCc1cn(-c2ccc(-n3ccccc3=O)cc2)cn1)c1ccc(Cl)s1 [1-Hydroxy-2-naphthoate Form 1] | 50 | 6.0 | stable | loss of crystallinity | Neither salts showed hygroscopicity | – | – | – | – | – | – | pH (with aqueous solubility) ([1]; salts formed under reflux conditions, listed as 1-hydroxy-2-napthoic acid MeCN): pH = 5.99; Aqueous solubility ([1]; salts formed under reflux conditions, water, listed as 1-hydroxy-2-napthoic acid MeCN): 44 µg/mL; pH (with aqueous solubility) ([1]; salts from 100-mg maturation experiments, listed as 2-5): pH = 6.50; Aqueous solubility ([1]; salts from 100-mg maturation experiments, water, listed as 2-5): 68 µg/mL; Purity post 40° C./75% RH [2, 8]: 97.7%; Purity as isolated [2, 8]: 98.2%; drop in chemical purity ([2]; listed as 1-hydroxy-2-naphthoate salt): 0.5%; physical stability after moisture exposure (XRPD pre- and post-GVS) ([3]; listed as 1-hydroxy-2-naphthoate salt of Compound I): substantially stable; hysteresis in GVS ([3]; listed as 1-hydroxy-2-naphthoate salt Form 1): showed any hysteresis
O=C(NCc1cn(-c2ccc(-n3ccccc3=O)cc2)cn1)c1ccc(Cl)s1 [Mesylate Form A] | 5100 | 1.8 | – | – | – | Absorbs approximately 2.5% | good physical stability | 3.3 | 1.3 mg/mL in simulated gastric | 0.02 | 2.0 | solubility at 24 h ([1]; water, 25 °C, pH 1.8, water, thermodynamic from solid, at pH 1.8): 5100 µg/mL; logP [4]: 2.25; logD ([4]; pH 7.4): 2.85; pKa [5]: 4.46; physical stability ([2]; 6 months of storage at 40° C./75% RH): physically stable; GVS uptake ([3]; at 90% RH): 2.8 wt %; hysteresis in GVS ([3]; listed as mesylate salt): no hysteresis evident
O=C(NCc1cn(-c2ccc(-n3ccccc3=O)cc2)cn1)c1ccc(Cl)s1 [Mesylate Form B] | – | – | – | – | – | Absorbs approximately 2.5% | good physical stability | 2.7 | 12 mg/mL in simulated gastric | 0.06 | 8.5 | –
O=C(NCc1cn(-c2ccc(-n3ccccc3=O)cc2)cn1)c1ccc(Cl)s1 [Phosphate Form 2] | 4100 | 2.0 | stable | – | Neither salts showed hygroscopicity | – | – | – | – | – | – | pH (with aqueous solubility) ([1]; salts formed under reflux conditions, listed as Phosphoric acid MeCN): pH = 2.00; Aqueous solubility ([1]; salts formed under reflux conditions, water, listed as Phosphoric acid MeCN): 4100 µg/mL
O=C(NCc1cn(-c2ccc(-n3ccccc3=O)cc2)cn1)c1ccc(Cl)s1 [Phosphate Form 3] | 6900 | 2.2 | stable | loss of crystallinity | – | – | – | – | – | – | – | pH (with aqueous solubility) ([1]; salts from 100-mg maturation experiments, listed as 2-4): pH = 2.18; Aqueous solubility ([1]; salts from 100-mg maturation experiments, water, listed as 2-4): 6900 µg/mL; Purity post 40° C./75% RH ([2]; listed as Phosphate 2-4): 97.3%; Purity as isolated ([2]; listed as Phosphate 2-4): 98.0%; drop in chemical purity [2]: 0.7%
